# Patent publication US8716288B2, “Composition comprising benproperine derivatives as active ingredients for preventing and treating angiogenesis-related diseases” (Korea Research Institute of Bioscience and Biotechnology, priority 2010, dated 2014)
# Marks after values point to notes of the source that are not given here.
# Tests used:
# [1] = test system: DLD-1 cell (human colorectal cancer cell line in which PRL-3 is over-expressed); assay: In vitro cell migration, trans-well assay; format: cell-based; settings: for inhibitory activity against cell migration for colorectal cancer cell line: DLD-1, compared with control sample of 0.1% DMSO, FIG. 4
# Experimental: In order to analyze inhibitory activity against in vitro cell migration of the benproperine derivative according to the present invention, after DLD-1 cell (ATCC-CCL-221), which is the human colorectal cancer cell lines in which PRL-3, cancer metastasis-related genes, is over-expressed, was grown around by 90% on the culture plate containing RPMI medium, the medium was removed and the cell was washed with PBS. The washed cell was processed with trypsin-EDTA, cultured CO2 incubator at 37° C. for […], and then detached. The resultant cells in which 10% FBS-containing RPMI medium was added were collected in the falcon tube and the medium was removed by centrifugation. The process in which FBS-free RPMI medium were added in the obtained cells and the medium was removed by centrifugation was repeated twice. After the obtained cells in which FBS-free RPMI medium was added were suspended, the number of cells was counted using a hemocytometer.
# The cells of 8×10^4 cells/200 μl were added to trans-wells which were placed on 24-well plates. FBS-free RPMI medium of 500 μl was added using the empty space where trans-wells were placed on well plates and cultured in a CO2 incubator at 37° C. for 12 to 16 hours. After the medium has been removed by placing trans-wells upside down on hand towel following culture, crystal violet of 500 μl (20% MeOH in 5 mg/ml) was added to each well of 24-well plates and trans-wells were put in a CO2 incubator for 30 minutes. Stained trans-wells were washed with PBS and placed upside down on hand towel so that the remaining solution was impregnated. Membrane was placed on the cover slip with the side where the cells didn't move facing upwards and wiped well with a cotton swab. The cover slip on whose edges nail polish was applied a little was put on a slide glass and fixed. The prepared sample was photographed with an inverted microscope (TE 300, Nikon, Japan) equipped with digital camera and the number of cells having moved was counted.
# Inhibitory activity against cell migration of benproperine and pharmaceutically acceptable salt thereof in Formulas 2 to 4 according to the present invention was observed by the above method, and inhibition rate was calculated by the Mathematical Equation 1.
# Wherein the control sample was observed by adding 0.1% dimethyl sulfoxide (DMSO) only without addition of the compound in the present invention.
# [2] = test system: melanoma cell line B16F10; assay: In vitro cell migration, trans-well assay; format: cell-based, mouse; settings: 10 μM, B16F10, FIG. 5
# [3] = Acute toxicity experiment of oral administration to rats; settings: rat, in vivo, 1000 mg/kg
# Experimental: In order to identify the toxicity of benproperine and pharmaceutically acceptable salt thereof according to the present invention, acute toxicity experiment was performed with laboratory animal as the subject as follow.
# After 6-week-old specific pathogen free (SPF) SD bred rats were divided into groups of 2 specimens, and were orally administered once with benproperine which was prepared in Reference Example 1 and dissolved in injectable distilled water with a dose of 1000 mg/kg.
# [4] = test system: pancreatic cancer cell line AsPc-1 cells; assay: In vitro cell migration, trans-well assay; format: cell-based, human; settings: 10 μM, AsPc-1, FIG. 5
# [5] = test system: B16F10 human melanoma cells; assay: In vivo metastasis of cancer, melanoma cells inoculated to tail vein, lung colony count; design: species or system C57BL/6 mouse; settings: 50 mg/kg intraperitoneally once a day, 14 times in total; for Inhibition rate (%) of metastasis: compared with control group, p < 0.001
# Experimental: In order to analyze inhibitory activity against in vivo cell migration of benproperine according to the present invention, inhibitory activity against metastasis of cancer of benproperine was analyzed using tumor model where melanoma cells are transplanted.
# Specifically, B16F10 […] melanoma cell line (ATCC-CRL-6475) was inoculated to DMEM (GIBCO, USA) medium containing 10% FBS (GIBCO, USA), and cultured at 5% CO2, 37° C. 7-week-old female specific pathogen free (SPF) C57BL/6 mouse was adapted to the laboratory environment by supplying enough antibiotic-free pellet feed (Samyang feed Inc., South Korea) and sterilized tap water, and then used in the experiment.
# Cultured B16F10 […] melanoma cells were suspended in PBS 200 μl at the concentration of 2×10^6 cells/ml, and inoculated […] to tail vein of the above mouse using a 26 gauge needle. After 3 hours of inoculation, the mice were divided into two groups in which the control group treated with sterile distilled water and the experimental group was intraperitoneally administered with benproperine of 50 mg/kg once a day, 14 times in total. The administration continued for 13 consecutive days, and then stopped. On day after the administration, autopsy was performed to the mouse of each group to extract the lung, and the number of colonies of metastasized cancer cells (melanoma cells) was counted.
# [6] = test system: DLD-1 cell (human colorectal cancer cell line in which PRL-3 is over-expressed); assay: Cytotoxicity of benproperine, WST-1 assay; format: cell-based; settings: DLD-1 cells, 48 hours, up to 10 μM, WST-1 absorbance at 450 nm, FIG. 2
# Experimental: In order to examine the cytotoxicity of the benproperine derivative prepared in Reference Example 1, after DLD-1 cell (ATCC-CCL-221), which is the human colorectal cancer cell lines in which PRL-3 cancer metastasis-related genes is over-expressed, was cultured in the RPMI culture medium containing 10% fetal bovine serum (FBS) and maintained at 37° C., 5% CO2, the cell was detached using 0.05% trypsin-EDTA. 4×10^3 cells which were calculated by hemocytometer were inoculated in each well of 96-well plates medium containing 10% FBS, and cultured in 37° C. incubator containing 5% CO2. After 24 hours, the culture medium of each well was replaced with new medium containing control (0.1% DMSO) and benproperine in Formula 2, which was prepared in Reference Example 1, by concentration (5 to 10 μM) and replace it with a new medium, and was cultured in 37° C., 5% CO2 incubator for 48 hours. After WST-1 (Roche) of 10 μl was added in each well of the above plate followed by 2 hours of culture, absorbance was measured at 450 nm using ELISA reader (Bio-Rad).
# [7] = In vitro cell migration, trans-well assay; format: cell-based, human; settings: 10 μM, A375P, FIG. 5
# [8] = test system: vascular endothelial cell HUVECs; assay: In vitro endothelial morphogenesis assay (tube formation on Matrigel); format: cell-based, human; settings: 24 hours, FIG. 6
# Experimental: Specifically, HUVECs (ATCC-CRL-2873) was brought into the starvation state by culturing in a serum-free medium overnight. Matrigel matrix (BD biosciences) of 0.2 ml was added in each well of 24-well plates and placed in the 37° C. incubator for 1 hour to coat the surface of well. 0.2 ml 2×10^4 cells prepared in the above were added to each well coated with Matrigel matrix and cultured in a CO2 incubator for 30 minutes. After culture, fresh medium containing benproperine of 1, 5, and 10 μM concentration was added in each well followed by the addition of 1% serum and cultured in a CO2 incubator for 24 hours. After culture, the degree of inhibitory activity against HUVECs tube formation of benproperine was observed under a microscope.
# [9] = test system: human-derived pancreatic cancer cell line (AsPC-1); assay: In vivo metastasis of cancer, AsPC-1 transplanted in caudal vein, bioluminescence imaging; design: species or system BALB/C nude mouse; settings: 50 mg/kg orally, 28th day after drug administration, lung, FIG. 8
# Description: In order to examine the in vivo inhibitory activity of the salt of benproperine of the present invention against metastasis of cancer, the inhibitory activity of benproperine phosphate (MD-164) against metastasis of cancer and toxicity of the same were examined by using the animal model which was transplanted with human-derived pancreatic cancer cell line (AsPC-1) in caudal vein.
# To be specific, the human-derived pancreatic cancer cell line AsPC-1 (adenocarcinoma; Pancrease cancer) had been stored frozen in liquid nitrogen and it was thawed and cultured in CO2 incubator (Form a, USA) with 5% CO2 at 37° C. Specific-pathogen-free (SPF) BALB/C nude mouse (orient, Korea) was used in this experiment. […]
# Secondly, in order to establish an animal model of pulmonary metastases, luciferase stably expressing AsPC-1 cell line was transplanted into a tail vein of mouse at a dose of 1×10^6 cells/mouse. […] The bioluminescence value was measured for equal area of each mouse subject, and the metastasis inhibition rate (%) in the group administered with benproperine phosphate was determined compared to a control group by the Mathematical Equation 2.
# On the 28th day after drug administration, the lung of animal model was collected, the number of colony was measured, and imaging signal (photone/s/sr) was also measured.
# [10] = Weight change in the AsPC-1 metastasis model (toxicity); format: in vivo, BALB/C nude mouse; settings: 50 and 100 mg/kg orally, five times a week, total of 20 times, FIG. 7
# Experimental: To be specific, the human-derived pancreatic cancer cell line AsPC-1 (adenocarcinoma; Pancrease cancer) had been stored frozen in liquid nitrogen and it was thawed and cultured in CO2 incubator (Form a, USA) with 5% CO2 at 37° C. Specific-pathogen-free (SPF) BALB/C nude mouse (orient, Korea) was used in this experiment.
# The cultured cells were collected and diluted to a cell concentration of 5×10^6 cells/ml by adding serum free media. Then, the animal model was prepared by intravenous administration of 0.2 ml of the cell culture to each mouse. Subsequently, 5 mg/ml of benproperine phosphate (MD-164) (KRIBB, Korea) was prepared by dissolving it in 0.5% Tween80 and orally administered to the mouse at a dose of 10 ml/kg five times a week, for a total of 20 times.
# First, in order to analyze the toxicity of benproperine phosphate, the weight of all test groups was measured prior to administration of the compound, three times a week during the test period.
molecule,measurement,setting,value
CC(COc1ccccc1Cc1ccccc1O)N1CCCCC1 (centres unmarked) [2-hydroxybenproperine],inhibitory activity against cell migration for colorectal cancer cell line,[1],inhibit effectively
CC(COc1ccccc1Cc1ccccc1)N1CCCC(O)C1 (centres unmarked) [3-hydroxybenproperine],inhibitory activity against cell migration for colorectal cancer cell line,[1],inhibit effectively
CC(COc1ccccc1Cc1ccccc1)N1CCCCC1 (centres unmarked) [benproperine],cell migration compared with DMSO-treated sample,[2],prominently inhibited
same,LD50,"[3]; Sprague-Dawley (SD), rats, single oral administration, read-out: minimum lethal dose (LD50) for oral administration",> 1000 mg/kg
same,"clinical symptoms, death, or weight changes",[3]; po,not observed
same,"toxic change (hematological examination, biochemical examination of blood, autopsy)",[3]; po,no toxic change
same,cell migration compared with DMSO-treated sample,"[1]; 10 μM, DLD-1, FIG. 5",prominently inhibited
same,inhibitory activity against cell migration for colorectal cancer cell line,[1],inhibit effectively
same,inhibition at 5 µM,"[1]; Homo sapiens, 5 μM, DLD-1, control 0.1% DMSO, FIG. 3, read-out: inhibition of migration of colorectal cancer cell compared to control",> 80%
same,inhibition at 10 µM,"[1]; Homo sapiens, 10 μM, DLD-1, control 0.1% DMSO, FIG. 3, read-out: inhibition of migration of colorectal cancer cell compared to control",> 90%
same,cell migration compared with DMSO-treated sample,[4],prominently inhibited
same,Inhibition rate (%) of metastasis,[5],45.1%
same,Inhibition rate (%) of metastasis,[5]; listed as Benproperine,45.1* %
same,Number of lung colony (average ± SD),[5]; negative control 106 ± 23.3,58.2 ± 25.8
same,cytotoxicity,[6],no cytotoxicity
same,cell migration compared with DMSO-treated sample,[7],prominently inhibited
same,inhibition of tube formation of HUVECs,"[8]; 10 μM, compared to DMSO-treated control group",significantly
same,inhibition of tube formation of HUVECs,"[8]; 1, 5 and 10 μM",concentration-dependent manner
benproperine phosphate,inhibition rate against metastasis compared to a control group,[9],71.5%
same,weight loss in comparison to a control group,[10],no significant weight loss
